Measurements taken from the NIST ThermoML archive (doi:10.1016/j.jct.2013.11.021).

How the values were obtained:
[1] = mn = molality of the nth substance listed, in mol/kg; conditions: 101 kPa, Liquid; for speed of sound: Sing-around technique in a fixed-path interferometer; for mass density: Vibrating tube method
[2] = 313.15 K; 101 kPa; Liquid; Sing-around technique in a fixed-path interferometer

O=C[O-].[NH3+]CCCO [3-hydroxypropylammonium formate] + O
[1]
Conditions | mass density, 298.15 K [kg/m3] | mass density, 303.15 K [kg/m3] | mass density, 308.15 K [kg/m3] | mass density, 313.15 K [kg/m3] | mass density, 318.15 K [kg/m3] | speed of sound, 298.15 K [m/s] | speed of sound, 303.15 K [m/s] | speed of sound, 308.15 K [m/s] | speed of sound, 313.15 K [m/s] | speed of sound, 318.15 K [m/s]
m1 = 0.1 | 998.637 | 997.222 | 995.623 | 993.757 | 991.751 | 1501.7 | 1513.4 | 1523.7 | 1532.4 | 1539.7
m1 = 0.2 | 1000.2 | 998.76 | 997.068 | 995.252 | 993.147 | 1507.7 | 1519 | 1528.9 | 1538.2 | 1545.2
m1 = 0.3 | 1001.76 | 1000.3 | 998.625 | 996.753 | 994.624 | 1513.5 | 1524.4 | 1533.9 | 1542 | 1548.6
m1 = 0.4 | 1003.33 | 1001.84 | 999.944 | 998.26 | 996.183 | 1519.7 | 1530.3 | 1539.6 | 1547.4 | 1553.8

O=C[C@H](O)[C@@H](O)[C@H](O)[C@H](O)CO [D-glucose] + O
[1]
Conditions | mass density, 298.15 K [kg/m3] | mass density, 303.15 K [kg/m3] | mass density, 308.15 K [kg/m3] | mass density, 313.15 K [kg/m3] | mass density, 318.15 K [kg/m3] | speed of sound, 298.15 K [m/s] | speed of sound, 303.15 K [m/s] | speed of sound, 308.15 K [m/s] | speed of sound, 313.15 K [m/s] | speed of sound, 318.15 K [m/s]
m1 = 0.04842 | 1000.33 | 998.923 | 997.289 | 995.463 | 993.441 | 1499.3 | 1512.1 | – | 1531.8 | –
m1 = 0.06669 | 1001.56 | 1000.14 | 998.498 | 996.672 | 994.638 | – | 1513.2 | 1523.1 | 1532.9 | 1539.7
m1 = 0.0976 | 1003.62 | 1002.18 | 1000.53 | 998.7 | 996.647 | 1502.3 | 1515.1 | 1525 | 1534.6 | 1541.4
m1 = 0.1066 | 1004.22 | 1002.77 | 1001.12 | 999.285 | 997.23 | 1502.9 | 1515.6 | 1525.5 | 1535.1 | 1541.9
m1 = 0.1235 | 1005.32 | 1003.87 | 1002.21 | 1000.38 | 998.311 | 1504 | 1516.7 | 1526.6 | 1536.1 | 1542.8
m1 = 0.1462 | – | 1005.34 | 1003.67 | 1001.84 | 999.761 | 1505.4 | 1518.1 | – | 1537.3 | –

O=C[C@H](O)[C@H](O)[C@H](O)CO [D-ribose] + O
[1]
Conditions | mass density, 298.15 K [kg/m3] | mass density, 303.15 K [kg/m3] | mass density, 308.15 K [kg/m3] | mass density, 313.15 K [kg/m3] | mass density, 318.15 K [kg/m3] | speed of sound, 298.15 K [m/s] | speed of sound, 303.15 K [m/s] | speed of sound, 308.15 K [m/s] | speed of sound, 313.15 K [m/s] | speed of sound, 318.15 K [m/s]
m1 = 0.0504 | 999.789 | 998.382 | 996.751 | 994.911 | 992.887 | 1498.8 | 1511.5 | 1521.3 | 1531.3 | 1538.2
m1 = 0.06883 | 1000.78 | 999.363 | 997.73 | 995.882 | 993.852 | 1499.8 | 1512.3 | 1522.2 | 1532.1 | 1539
m1 = 0.08626 | 1001.7 | 1000.29 | 998.651 | 996.793 | 994.758 | 1500.7 | 1513.1 | 1523 | 1532.9 | 1539.7
m1 = 0.1107 | 1003 | 1001.58 | 999.932 | 998.065 | 996.017 | 1502 | 1514.3 | 1524.1 | 1534 | 1540.7
m1 = 0.136 | 1004.33 | 1002.89 | 1001.25 | 999.37 | 997.311 | 1503.3 | 1515.5 | 1525.3 | 1535.1 | 1541.8
m1 = 0.1566 | 1005.39 | 1003.96 | 1002.31 | 1000.41 | 998.355 | 1504.4 | 1516.5 | 1526.3 | 1536 | 1542.7

O [water]
Conditions | speed of sound [m/s]
[2] | 1528.9
